Numbered stars: 1 amine (or outer) side, 2 acyl side, 3 side chain; on linkers, the order of the positions; unused ones are H or OH. Bridge positions count the residues as written; N and C are the ends. Square brackets hold non-standard residues; d marks the D form. Side chains are listed from the residue outwards. Peptide text beside a SMILES is read from it. * marks the point of attachment. ξ: configuration not given here. NH(CH2)2(4-DOTA-piperazinyl) = O=C(O)CN1CCN(CC(=O)O)CCN(CC(=O)N2CCN(CCN*)CC2)CCN(CC(=O)O)CC1; NH(CH2)2O(CH2)2NHDOTA = O=C(O)CN1CCN(CC(=O)O)CCN(CC(=O)NCCOCCN*)CCN(CC(=O)O)CC1; X4 = O=C(O)CN1CCN(CC(=O)O)CCN(CC(=O)N2CCc3cc(C(=O)*)ccc3C2)CCN(CC(=O)O)CC1; X5 = CCCCCC(=O)N[C@@H](CSCc1cccc(C[*:2])c1)C(=O)N1CCC[C@@H](NC(=O)[*:1])C1; X3 = O=C(O)CN1CCN(CC(=O)O)CCN(CC(=O)NCCOCCOCCOCCN*)CCN(CC(=O)O)CC1; DOTA = O=C(O)CN1CCN(CC(=O)O)CCN(CC(=O)*)CCN(CC(=O)O)CC1; Azetidine3carboxylic = O=C(C1CN([*:1])C1)[*:2]; Pyridine(3,5-bisCH2) = c1ncc(C[*:2])cc1C[*:1]; γGlu = O=C(O)[C@H](CCC(=O)[*:2])N[*:1]; βAsp = O=C(O)[C@H](CC(=O)[*:2])N[*:1]; mXylylene = c1cc(C[*:1])cc(C[*:2])c1; Ethylenediamine = C(CN[*:2])N[*:1]; Cha = N[C@@H](CC1CCCCC1)C(=O)O; d(β3hD) = NC(CC(=O)O)CC(=O)O; Decanoyl = CCCCCCCCCC(=O)*; CH2CH2 = C(C[*:2])[*:1]; Hexanoyl = CCCCCC(=O)*; CO = O=C([*:1])[*:2]; ξP = O=C(O)C1CCCN1; ξC = NC(CS)C(=O)O; NHBu = CCCCN*
Target: T1, FAP protein (Homo sapiens, UniProt Q12884)
T1 construct: purchased Sinobiological
T1 sequence (Q12884 1-760): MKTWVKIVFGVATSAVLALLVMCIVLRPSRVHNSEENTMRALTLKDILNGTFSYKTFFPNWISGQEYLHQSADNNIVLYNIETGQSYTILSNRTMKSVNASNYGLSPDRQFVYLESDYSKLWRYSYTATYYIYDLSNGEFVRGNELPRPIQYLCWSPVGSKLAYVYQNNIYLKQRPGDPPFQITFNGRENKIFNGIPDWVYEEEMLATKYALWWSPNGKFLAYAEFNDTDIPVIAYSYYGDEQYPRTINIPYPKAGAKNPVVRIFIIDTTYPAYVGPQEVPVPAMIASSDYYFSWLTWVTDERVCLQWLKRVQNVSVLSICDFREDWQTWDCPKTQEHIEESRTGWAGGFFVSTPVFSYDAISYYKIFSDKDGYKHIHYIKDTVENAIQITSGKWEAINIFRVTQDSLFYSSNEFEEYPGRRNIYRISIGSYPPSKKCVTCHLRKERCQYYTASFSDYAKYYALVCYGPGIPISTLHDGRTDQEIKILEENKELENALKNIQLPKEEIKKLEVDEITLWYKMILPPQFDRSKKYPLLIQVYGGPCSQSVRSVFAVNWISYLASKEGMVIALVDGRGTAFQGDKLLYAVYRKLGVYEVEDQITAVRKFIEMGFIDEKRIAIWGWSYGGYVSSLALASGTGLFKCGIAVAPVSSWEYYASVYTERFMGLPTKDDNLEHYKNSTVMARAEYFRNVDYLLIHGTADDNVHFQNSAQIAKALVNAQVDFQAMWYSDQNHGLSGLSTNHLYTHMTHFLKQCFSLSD
Assay: Biacore test of compound affinity to FAP protein
Conditions: Biacore 8K, SA chip, 15° C., 1:1 binding model; read-out: pKD (FAP) (converted)
Procedure: The Biacore 8K (Cytiva) instrument was used to detect ligand binding of the FAP protein (Sinobiological). FAP protein was captured on the SA chip. […] The sensor surface was conditioned by injecting 1M NaCl three consecutive times in 50 mM NaOH. After each ligand injection, additional cleaning was performed using isopropanol in 1M NaCl and 50 mM NaOH (flow path 1 and 2, flow rate of 10 μL/min, injection time of 60 s). […] The analyte was run under the following conditions: analysis temperature of 15° C., analysis step=all set to LMW kinetics; cycle type=single cycle (contact time of 90 s, dissociation time of 1800 s, flow rate of 30 μL/min, flow channels 1 and 2); channel detection=2-1. Data was evaluated using the Biacore Insight Evaluation Software, and the data were fitted to a 1:1 binding model. The Biacore results are shown in Table 2 below: pKD=−Log KD, where KD is the binding affinity of the compound to the FAP protein as measured by Biacore.

Structure (SMILES)	Kd
CCCCCC(=O)N[C@H]1CSCc2cccc(c2)CSCC(C(=O)N[C@H](CC(=O)O)CC(=O)NCCOCCNC(=O)CN2CCN(CC(=O)O)CCN(CC(=O)O)CCN(CC(=O)O)CC2)NC(=O)[C@H](Cc2ccccc2)NC(=O)[C@H](CCC(N)=O)NC(=O)[C@H]([C@@H](C)O)NC(=O)C2CCCN2C(=O)C2CN(C2)C1=O (stereo partly drawn) [JHDC36, Hex-[Cys(3MeBn)-hhy39-Pro-Thr-Gln-Phe-Cys]-β-Glu-(DAPEG2-DOTA)-OH] (Hexanoyl-C[Azetidine3carboxylic][ξP]TQF[ξC][d(β3hD)]-{NH(CH2)2O(CH2)2NHDOTA}; linker 1-7 via mXylylene)	10 to 100 nM
CCCCCC(=O)N[C@H]1CSCCSCC(C(=O)N[C@@H](CCC(=O)NCCOCCNC(=O)CN2CCN(CC(=O)O)CCN(CC(=O)O)CCN(CC(=O)O)CC2)C(=O)O)NC(=O)[C@H](Cc2ccccc2)NC(=O)[C@H](CCC(N)=O)NC(=O)[C@H]([C@@H](C)O)NC(=O)C2CCCN2C(=O)C2CN(C2)C1=O (stereo partly drawn) [JHDC27, Hex[Cys(ethylene)-hhy39-Pro-Thr-Gln-Phe-Cys]-Glu-(DAPEG2-DOTA)-OH] (Hexanoyl-C[Azetidine3carboxylic][ξP]TQF[ξC]E(NH(CH2)2O(CH2)2NHDOTA)-OH; linker 1-7 via CH2CH2)	10 to 100 nM
CCCCNC(=O)N[C@H]1CSCc2cccc(c2)CSC[C@@H](C(=O)N[C@@H](CCC(=O)NCCN2CCN(C(=O)CN3CCN(CC(=O)O)CCN(CC(=O)O)CCN(CC(=O)O)CC3)CC2)C(=O)O)NC(=O)[C@H](Cc2ccccc2)NC(=O)[C@H](CCC(N)=O)NC(=O)[C@H]([C@@H](C)O)NC(=O)C2CCCN2C(=O)C2CN(C2)C1=O (stereo partly drawn) [JHDC50, nBu-urea-[Cys(3MeBn)-hhy39-Pro-Thr-Gln-Phe-Cys]-Glu-(aminoethylpiperazine-DOTA)-OH] ({NHBu-CO}-C[Azetidine3carboxylic][ξP]TQFCE(NH(CH2)2(4-DOTA-piperazinyl))-OH; linker 1-7 via mXylylene)	10 to 100 nM
CCCCCC(=O)N[C@H]1CSCc2cccc(c2)CSCC(C(=O)N[C@@H](CCC(=O)NCCOCCOCCOCCNC(=O)CN2CCN(CC(=O)O)CCN(CC(=O)O)CCN(CC(=O)O)CC2)C(=O)O)NC(=O)[C@H](CC2CCCCC2)NC(=O)[C@H](CCC(N)=O)NC(=O)[C@H]([C@@H](C)O)NC(=O)C2CCCN2C(=O)C2CN(C2)C1=O (stereo partly drawn) [JHDC16, Hex[Cys(3MeBn)-hhy39-Pro-Thr-Gln-hhy34-Cys]-Glu-(DAPEG4-DOTA)-OH] (Hexanoyl-C[Azetidine3carboxylic][ξP]TQ[Cha][ξC]E(X3)-OH; linker 1-7 via mXylylene)	10 to 100 nM
CCCCCC(=O)N[C@H]1CSCc2cccc(c2)CSCC(C(=O)N[C@@H](CCC(=O)NCCOCCNC(=O)CN2CCN(CC(=O)O)CCN(CC(=O)O)CCN(CC(=O)O)CC2)C(=O)O)NC(=O)[C@H](CC2CCCCC2)NC(=O)[C@H](CCC(N)=O)NC(=O)[C@H]([C@@H](C)O)NC(=O)C2CCCN2C(=O)C2CN(C2)C1=O (stereo partly drawn) [JHDC05, Hex[Cys(3MeBn)-hhy39-Pro-Thr-Gln-hhy34-Cys]-Glu-(DAPEG2-DOTA)-OH] (Hexanoyl-C[Azetidine3carboxylic][ξP]TQ[Cha][ξC]E(NH(CH2)2O(CH2)2NHDOTA)-OH; linker 1-7 via mXylylene)	< 10 nM
CCCCNC(=O)N[C@H]1CSCc2cccc(c2)CSCC(C(=O)N[C@H](CC(=O)O)CC(=O)NCCOCCNC(=O)CN2CCN(CC(=O)O)CCN(CC(=O)O)CCN(CC(=O)O)CC2)NC(=O)[C@H](Cc2ccccc2)NC(=O)[C@H](CCC(N)=O)NC(=O)[C@H]([C@@H](C)O)NC(=O)C2CCCN2C(=O)C2CN(C2)C1=O (stereo partly drawn) [JHDC34, nBu-urea-[Cys(3MeBn)-hhy39-Pro-Thr-Gln-Phe-Cys]-p-Glu-(DAPEG2-DOTA)-OH] ({NHBu-CO}-C[Azetidine3carboxylic][ξP]TQF[ξC][d(β3hD)]-{NH(CH2)2O(CH2)2NHDOTA}; linker 1-7 via mXylylene)	10 to 100 nM
CCCCCC(=O)N[C@H]1CSCc2cncc(c2)CSCC(C(=O)N[C@@H](CCC(=O)NCCOCCNC(=O)CN2CCN(CC(=O)O)CCN(CC(=O)O)CCN(CC(=O)O)CC2)C(=O)O)NC(=O)[C@H](Cc2ccccc2)NC(=O)[C@H](CCC(N)=O)NC(=O)[C@H]([C@@H](C)O)NC(=O)C2CCCN2C(=O)C2CN(C2)C1=O (stereo partly drawn) [JHDC32, Hex[Cys(3MePy)-hhy39-Pro-Thr-Gln-Phe-Cys]-Glu-(DAPEG2-DOTA)-OH] (Hexanoyl-C[Azetidine3carboxylic][ξP]TQF[ξC]E(NH(CH2)2O(CH2)2NHDOTA)-OH; linker 1-7 via Pyridine(3,5-bisCH2))	10 to 100 nM
CCCCCC(=O)N[C@H]1CSCc2cccc(c2)CSCC(C(=O)N[C@@H](CCC(=O)NCCOCCNC(=O)CN2CCN(CC(=O)O)CCN(CC(=O)O)CCN(CC(=O)O)CC2)C(=O)O)NC(=O)[C@H](Cc2ccccc2)NC(=O)[C@H](CCC(N)=O)NC(=O)[C@H]([C@@H](C)O)NC(=O)C2CCCN2C(=O)C2CN(C2)C1=O (stereo partly drawn) [JHDC06, Hex[Cys(3MeBn)-hhy39-Pro-Thr-Gln-Phe-Cys]-Glu-(DAPEG2-DOTA)-OH] (Hexanoyl-C[Azetidine3carboxylic][ξP]TQF[ξC]E(NH(CH2)2O(CH2)2NHDOTA)-OH; linker 1-7 via mXylylene)	< 10 nM
CCCCCC(=O)N[C@H]1CSCc2cccc(c2)CSCC(C(=O)N[C@@H](CCCCNC(=O)CN2CCN(CC(=O)O)CCN(CC(=O)O)CCN(CC(=O)O)CC2)C(=O)O)NC(=O)[C@H](Cc2ccccc2)NC(=O)[C@H](CCC(N)=O)NC(=O)[C@H]([C@@H](C)O)NC(=O)C2CCCN2C(=O)N[C@@H]2CCCN(C2)C1=O (stereo partly drawn) [JHDC07, Hex[Cys(3MeBn)-hhy44(NH)—CO-Pro-Thr-Gln-Phe-Cys]-Lys-(DOTA)-OH] ([ξP]TQF[ξC]K(DOTA)-OH; linker N-5 via X5)	10 to 100 nM
CCCCCCCCCC(=O)N[C@H]1CSCc2cccc(c2)CSC[C@@H](C(=O)N[C@@H](CCC(=O)N[C@@H](CCCNC(=N)N)C(=O)NCC(=O)N[C@@H](CC(=O)NCCNC(=O)CN2CCN(CC(=O)O)CCN(CC(=O)O)CCN(CC(=O)O)CC2)C(=O)O)C(=O)O)NC(=O)[C@H](Cc2ccccc2)NC(=O)[C@H](CCC(N)=O)NC(=O)[C@H]([C@@H](C)O)NC(=O)[C@@H]2CCCN2C(=O)C2CN(C2)C1=O [JHDC18, Dec[Cys(3MeBn)-hhy39-Pro-Thr-Gln-Phe-Cys]-Glu-(Arg-Gly-Asp(EDA-DOTA))-OH] (Decanoyl-C[Azetidine3carboxylic]PTQFC[γGlu]RG[βAsp]-{Ethylenediamine-DOTA}; linker 1-7 via mXylylene)	10 to 100 nM
CCCCCC(=O)N[C@H]1CSSCC(C(=O)N[C@@H](CCC(=O)NCCOCCNC(=O)CN2CCN(CC(=O)O)CCN(CC(=O)O)CCN(CC(=O)O)CC2)C(=O)O)NC(=O)[C@H](Cc2ccccc2)NC(=O)[C@H](CCC(N)=O)NC(=O)[C@H]([C@@H](C)O)NC(=O)C2CCCN2C(=O)C2CN(C2)C1=O (stereo partly drawn) [JHDC30, Hex[Cys(SS)-hhy39-Pro-Thr-Gln-Phe-Cys]-Glu-(DAPEG2-DOTA)-OH] (Hexanoyl-C[Azetidine3carboxylic][ξP]TQF[ξC]E(NH(CH2)2O(CH2)2NHDOTA)-OH; disulfide 1-7)	10 to 100 nM
CCCCNC(=O)N[C@H]1CSCc2cccc(c2)CSCC(C(=O)N[C@@H](CCC(=O)NCCNC(=O)c2ccc3c(c2)CCN(C(=O)CN2CCN(CC(=O)O)CCN(CC(=O)O)CCN(CC(=O)O)CC2)C3)C(=O)O)NC(=O)[C@H](Cc2ccccc2)NC(=O)[C@H](CCC(N)=O)NC(=O)[C@H]([C@@H](C)O)NC(=O)C2CCCN2C(=O)C2CN(C2)C1=O (stereo partly drawn) [JHDC26, nBu-urea-[Cys(3MeBn)-hhy39-Pro-Thr-Gln-Phe-Cys]-Glu-(EDA-hhy02-DOTA)-OH] ({NHBu-CO}-C[Azetidine3carboxylic][ξP]TQF[ξC]E([Ethylenediamine-X4])-OH; linker 1-7 via mXylylene)	10 to 100 nM
CCCCCC(=O)N[C@H]1CSCc2cccc(c2)CSC[C@@H](C(=O)NCCOCCNC(=O)CN2CCN(CC(=O)O)CCN(CC(=O)O)CCN(CC(=O)O)CC2)NC(=O)[C@H](Cc2ccccc2)NC(=O)[C@H](CCC(N)=O)NC(=O)[C@H]([C@@H](C)O)NC(=O)[C@@H]2CCCN2C(=O)C2CN(C2)C1=O [JHDC10, Hex[Cys(3MeBn)-hhy39-Pro-Thr-Gln-Phe-Cys]-DAPEG2-DOTA] (Hexanoyl-C[Azetidine3carboxylic]PTQFC-{NH(CH2)2O(CH2)2NHDOTA}; linker 1-7 via mXylylene)	10 to 100 nM

Reference: US20260274894A1, “CYCLIC POLYPEPTIDE COMPOUND AND USE THEREOF” (BIVISION PHARMACEUTICALS, INC., priority 2023, published 2026)
